Laboratory results: US20230103237A1, “BIODEGRADABLE PARTICLES AND BIODEGRADABLE PARTICLES IN CONTACT WITH ACTIVE INGREDIENTS” (The United States of America, as represented by the …, priority 2021, published 2023)

Tested on: Culex quinquefasciatus mosquito larvae
Assay: whole plant or invertebrate
Format: in vivo
Description: FIG. 5 depicts a graph of the percentage of mosquito larvae death as a function of time for the different zein-silver particle solutions. This graph includes the results from five (5) trials with twenty (20) 3rd instar or 4th instar larvae. The Y axis presents the percentage death (Lethal %). The X axis presents the time after treatment in hours. Circles represent 100 ppm zein-silver particles; triangles represent 1 ppm zein-silver particles; diamonds represent 0.1 ppm zein-silver particles.
The larvicidal effect of the zein-silver particles prepared above was tested on Culex quinquefasciatus mosquito species.

Compound	mortality at 0.2 ppm (Culex quinquefasciatus, 40 h, read-out: Larval Mortality (%)) [%]	killing of larvae (0.2 ppm, after 90 hours) [%]
OCC(O)CO [Glycerol, glycerol]	0	
[BH4-].[Na+] [sodium borohydride]		8
